This note sets out measurements from patent EP4768499A1, “MACROCYCLIC PEPTIDE COMPOUND HAVING CELL MEMBRANE PERMEABILITY AND METABOLIC STABILITY, AND LIBRARY CONTAINING SAME” (Chugai Seiyaku Kabushiki Kaisha, priority 2023, dated 2025).

Series [1] is described as follows: Metabolic stability test: liver microsomal stability assay. To be noted: for microsomal CLint at 1 µM: male, pH 7.4, presence of NADPH, read-out: Mouse Hepatic Microsome CLh,int NADPH(+). It is filed as in vitro ADME, mouse. For orientation: Microsomes from liver hold many membrane-bound enzymes, among them those of drug oxidation.
Series [2] can be described thus: Membrane permeability test using Caco-2 cells with preincubation. The series is classed as in vitro ADME. As to conditions: Caco-2. For orientation: Passage across Caco-2 layers is used to estimate intestinal permeability.
In series [3] the test system is Caco-2 cells. Described as above. The series is classed as in vitro ADME.
Series [4] is described as follows: Mouse PK test: plasma concentration after intravenous or oral administration. As to conditions: C57BL/6J. It is filed as in vivo, mice (C57BL/6J). As for the experimental part:
We evaluated the plasma concentration changes after intravenous or oral administration of four types of peptides that satisfy these conditions to mice.
To male mice (C57BL/6J, 10 weeks old, purchased from Charles River Laboratories Japan, Inc.: 3 mice per group), the compound was administered intravenously at a dose of 1 mg/kg or orally at a dose of 50 mg/kg, and blood was collected from the jugular vein over time up to 24 hours after administration. The collected blood was dispensed into tubes that were pre-treated with heparin as an anticoagulant. Plasma was separated from the blood by centrifugation, and after deproteinization with acetonitrile, the plasma concentration of the compound was measured with an LC/MS/MS device (XEVO TQ-XS, manufactured by Waters Corporation).

Where [5] appears, read: mouse liver microsomes 0.5 mg protein/mL, compound 1 µM.
[6] abbreviates: mouse liver microsomes 0.5 mg protein/mL, compound 1 µM, absence of NADPH.
[7] abbreviates: preincubation 20 to 24 hours, Apical FaSSIF/HBSS pH 6.0, Basal HBSS 4% BSA pH 7.4, 180 minutes, read-out: Caco2 Papp.
Setting [8] is: Caco-2 cells, preincubation 20 to 24 hours, apical FaSSIF/HBSS 1% DMSO pH 6.0, basal HBSS 4% BSA pH 7.4, basal sample at 180 minutes.

What is called Cmax is the peak of the concentration-time curve. A word on the Tmax: it is the time at which the peak concentration occurs.

Read-outs that look alike come from different tables or passages of the source. Starred links: 1 amine or outer side, 2 acyl side, 3 side chain; linkers in the order of their positions; H or OH if unused. Non-standard residues stand in square brackets, D forms with d. Residues, ends and D or L forms follow the SMILES beside them. *: point of attachment. NMedβ3hAla = C[C@H](CC(=O)[*:2])N(C)[*:1]; NMeF = CN[C@@H](Cc1ccccc1)C(=O)O; NMeI = CC[C@H](C)[C@H](NC)C(=O)O; NMeT = CN[C@H](C(=O)O)[C@@H](C)O; hPhe = N[C@@H](CCc1ccccc1)C(=O)O; NMeβAla = CN(CCC(=O)[*:2])[*:1]; NMeL = CN[C@@H](CC(C)C)C(=O)O; NMeV = CN[C@H](C(=O)O)C(C)C; d(β3hA) = C[C@@H](N)CC(=O)O; NMeAbu = CC[C@H](NC)C(=O)O; Abu = CC[C@H](N)C(=O)O; Sar = CNCC(=O)O; tBu = CC(C)(C)*

In the case of `CC[C@@H]1NC(=O)[C@H](CC(C)C)N(C)C(=O)[C@H](COC(C)(C)C)NC(=O)[C@H]([C@@H](C)CC)N(C)C(=O)[C@H](CCc2ccccc2)NC(=O)[C@H](Cc2ccccc2)N(C)C(=O)[C@H](C(C)C)NC(=O)[C@H](CC(C)C)N(C)C(=O)[C@H](CC(C)C)NC(=O)CCN(C)C(=O)C[C@@H](C)N(C)C(=O)CN(C)C(=O)[C@H](CC(C)C)N(C)C(=O)[C@@H]2CCCN2C1=O` [pd065] (cyclo([Abu]P[NMeL][Sar][NMedβ3hAla][NMeβAla]L[NMeL]V[NMeF][hPhe][NMeI]S(tBu)[NMeL])), the microsomal CLint at 1 µM in series [1] (setting [5]) is 41.7 µL/min/mg. Also, the “Mouse Hepatic Microsome CLh,int NADPH(-)” value in series [1] (setting [6]) worked out at 40.2 µL/min/mg Protein. Moreover, the Papp A→B in series [2] (setting [7]) was 0.54 ×10⁻⁶ cm/s. The “Caco2 Papp (10^-6 cm/sec)” value in series [3] (setting [8]) is on record as 0.54 10^-6 cm/sec. For the same molecule, the AUC(0-inf) in series [4] (in vivo, male mice, intravenous administration, 1 mg/kg, read-out: AUCinf) was 8700 ng·h/mL; in series [4] (in vivo, male mice, oral administration, 50 mg/kg, read-out: AUCinf), 110000 ng·h/mL. Also, in series [4] (in vivo, male mice, intravenous administration, 1 mg/kg, read-out: CL), the clearance worked out at 1.9 mL/min/kg. In addition, the Vd in series [4] (in vivo, male mice, intravenous administration, 1 mg/kg, read-out: Vss) was determined as 0.57 L/kg. In addition, the half-life is 5.4 h in series [4] (in vivo, male mice, intravenous administration, 1 mg/kg, read-out: t1/2 (converted)) and 5.8 h in series [4] (in vivo, male mice, oral administration, 50 mg/kg, read-out: t1/2 (converted)). Besides, the bioavailability in series [4] (in vivo, male mice, oral 50 mg/kg vs intravenous 1 mg/kg, bioavailability, read-out: F) is 26%. Further, the Cmax in series [4] (in vivo, male mice, oral administration, 50 mg/kg, read-out: Cmax) is 11000 ng/mL. Also, the Tmax in series [4] (in vivo, male mice, oral administration, 50 mg/kg, read-out: Tmax) amounted to 2.7 h.

Turning to `CC[C@@H]1NC(=O)[C@H](CC(C)C)N(C)C(=O)[C@H]([C@@H](C)CC)NC(=O)[C@H](CC(C)C)N(C)C(=O)C[C@@H](C)NC(=O)[C@H](C(C)C)N(C)C(=O)[C@H](CC(C)C)NC(=O)[C@H](CC)N(C)C(=O)[C@H](Cc2ccccc2)N(C)C(=O)[C@@H]2CCCN2C(=O)[C@H](CC(C)C)NC(=O)[C@H]([C@@H](C)O)N(C)C(=O)[C@H](CC(C)C)N(C)C1=O` [pd135] (cyclo([Abu][NMeL][NMeT]LP[NMeF][NMeAbu]L[NMeV][d(β3hA)][NMeL]I[NMeL])), the microsomal CLint at 1 µM in series [1] (setting [5]) is 39.5 µL/min/mg. Also, in series [1] (setting [6]), the “Mouse Hepatic Microsome CLh,int NADPH(-)” value is 28.4 µL/min/mg Protein. In series [2] (setting [7]), the Papp A→B was found to be 1.95 ×10⁻⁶ cm/s. In series [3] (setting [8]), the “Caco2 Papp (10^-6 cm/sec)” value is listed as 1.95 10^-6 cm/sec. Also, the AUC(0-inf) in series [4] (plasma, male mice, intravenous administration, 1 mg/kg, read-out: AUCinf) is 10000 ng·h/mL; in series [4] (plasma, male mice, oral administration, 50 mg/kg, read-out: AUCinf) it was 79000 ng·h/mL. Further, the clearance in series [4] (plasma, male mice, intravenous administration, 1 mg/kg, read-out: CL) was 1.7 mL/min/kg. The Vd in series [4] (plasma, male mice, intravenous administration, 1 mg/kg, read-out: Vss) was 0.81 L/kg. The half-life is 6.4 h in series [4] (plasma, male mice, intravenous administration, 1 mg/kg, read-out: t1/2 (converted)) and 7.6 h in series [4] (plasma, male mice, oral administration, 50 mg/kg, read-out: t1/2 (converted)). Also, the bioavailability in series [4] (plasma, male mice, oral 50 mg/kg vs intravenous 1 mg/kg, bioavailability, read-out: F) was found to be 16%. In series [4] (plasma, male mice, oral administration, 50 mg/kg, read-out: Cmax), the Cmax was 7000 ng/mL. Besides, the time of peak concentration (Tmax) in series [4] (plasma, male mice, oral administration, 50 mg/kg, read-out: Tmax) is 1.7 h.

For `CC[C@H](C)[C@H]1C(=O)N[C@@H](CC(C)C)C(=O)N(C)CC(=O)N(C)[C@@H](CC(C)C)C(=O)N[C@@H](CC(C)C)C(=O)N(C)[C@H](C)CC(=O)N(C)[C@@H](CC(C)C)C(=O)N(C)CCC(=O)N(C)[C@@H](CC(C)C)C(=O)N[C@@H](COC(C)(C)C)C(=O)N(C)[C@@H](Cc2ccccc2)C(=O)N(C)CCC(=O)N(C)[C@@H](Cc2ccccc2)C(=O)N1C` [pd144] (cyclo(L[Sar][NMeL]L[NMedβ3hAla][NMeL][NMeβAla][NMeL]S(tBu)[NMeF][NMeβAla][NMeF][NMeI])), the “Mouse Hepatic Microsome CLh,int NADPH(-)” value in series [1] is recorded as 34.0 µL/min/mg Protein. Moreover, the Papp A→B in series [2] was 1.28 ×10⁻⁶ cm/s. Moreover, in series [3] (Caco-2), the “Caco2 Papp (10^-6 cm/sec)” value is 1.28 10^-6 cm/sec. In series [4] (male, in vivo, iv, 1 mg/kg), this molecule had an AUC(0-inf) of 3500 ng·h/mL, a Vd of 1.6 L/kg, a clearance of 4.9 mL/min/kg and a half-life of 5.3 h. For the same molecule, the bioavailability in series [4] (male, in vivo, po) amounted to 40%. Further, in series [4] (male, in vivo, po, 50 mg/kg), the AUC(0-inf) is 71000 ng·h/mL, the Cmax was determined as 7000 ng/mL, the Tmax amounted to 1.3 h and the half-life was 9.7 h.
